Assay results as given in patent publication US7384949B2, “Thieno(3,2-d)pyrimidines and furano(3,2-d)pyrimidines and their use as purinergic receptor antagonists” (Vernalis Research Limited, priority 2001, dated 2008).

melting point	SMILES
131 to 132 °C	CN(C)c1nc(-c2nccn2COCC[Si](C)(C)C)c2sccc2n1
< 100 °C	CCc1nc(-c2nncn2COCC[Si](C)(C)C)c2sccc2n1
108 to 109 °C	C[Si](C)(C)CCOCn1cc(-c2nc(Cl)nc3ccsc23)cn1
60 to 61 °C	CN(C)c1nc(-c2cnn(COCC[Si](C)(C)C)c2)c2sccc2n1
146.9 to 147.6 °C	Clc1nc(-c2ccco2)c2sccc2n1 [Example 3, 2-chloro-4-(2-furyl)thieno[3,2-d]pyrimidine]
128.5 to 128.9 °C	OC[C@H]1CCCN1c1nc(-c2cccs2)c2sccc2n1 [Example 4, (2R)-2-(2-hydroxymethylpyrrolidin-1-yl)-4-(2-thienyl)thieno[3,2-d]pyrimidine]
147.6 to 148.8 °C	FC(F)(F)c1nc(-c2ccco2)c2sccc2n1 [Example 11, 4-(2-furyl)-2-trifluoromethylthieno[3,2-d]pyrimidine]
164.4 to 164.9 °C	Cc1csc2c(-c3ccco3)nc(Cl)nc12 [Example 12, 2-chloro-4-(2-furyl)-7-methylthieno[3,2-d]pyrimidine]
149.9 to 150.6 °C	Cc1csc2c(-c3ccco3)nc(NCCO)nc12 [Example 16, 4-(2-furyl)-N-(2-hydroxyethyl)-7-methylthieno[3,2-d]pyrimidine-2-amine]
231 to 231.6 °C	Clc1nc(-c2cc3ccccc3s2)c2sccc2n1 [Example 17, 4-(2-benzothiophenyl)-2-chlorothieno[3,2-d]pyrimidine]
173.4 to 174.4 °C	OCCNc1nc(-c2cc3ccccc3s2)c2sccc2n1 [Example 20, 4-(2-benzothiophenyl)-N-(2-hydroxyethyl)thieno[3,2-d]pyrimidine-2-amine]
118.7 to 119.5 °C	CN(C)c1nc(-c2ccco2)c2scc(Br)c2n1 [Example 22, 7-bromo-N,N-dimethyl-4-(2-furyl)thieno[3,2-d]pyrimidine-2-amine]
209.2 to 209.5 °C	Clc1nc(-c2ccccn2)c2sccc2n1 [Example 24, 2-chloro-4-(2-pyridyl)thieno[3,2-d]pyrimidine]
183.2 to 183.8 °C	Clc1nc(-c2cnccn2)c2sccc2n1 [Example 30, 2-chloro-4-(2-pyrazinyl)thieno[3,2-d]pyrimidine]
191.5 to 192.4 °C	OCCNc1nc(-c2cnccn2)c2sccc2n1 [Example 34, N-(2-hydroxyethyl)-4-(2-pyrazinyl)thieno[3,2-d]pyrimidine-2-amine]
207 to 208 °C	CCSc1nc(-c2ccco2)c2sccc2n1 [Example 37, 2-ethylthio-4-(2-furyl)thieno[3,2-d]pyrimidine]
109 to 110 °C	OC[C@H]1CCCN1c1nc(-c2ccco2)c2sccc2n1 [Example 38, (2R)-4-(2-furyl)-2-(2-hydroxymethylpyrrolidin-1-yl)thieno[3,2-d]pyrimidine]
182.8 to 183.8 °C	CN(C)c1nc(-c2ccco2)c2scc([N+](=O)[O-])c2n1 [Example 44, N,N-dimethyl-4-(2-furyl)-7-nitrothieno[3,2-d]pyrimidine-2-amine]
145.8 to 146.5 °C	CN(C)c1nc(-c2ccco2)c2scc(N)c2n1 [Example 51, 7-amino-N,N-dimethyl-4-(2-furyl)thieno[3,2-d]pyrimidine-2-amine]
244.4 to 244.9 °C	CN(C)c1nc(-c2ccco2)c2scc(NC(=O)Nc3ccccc3)c2n1 [Example 55, N-(2-dimethylamino-4-(2-furyl)thieno[3,2-d]pyrimidine-7-yl)-N′-phenylurea]
210.9 to 211.3 °C	CC(=O)Nc1csc2c(-c3ccco3)nc(N(C)C)nc12 [Example 56, N-(2-dimethylamino-4-(2-furyl)thieno[3,2-d]pyrimidine-7-yl)acetamide]
192.2 to 192.8 °C	CN(C)c1nc(-c2ccco2)c2scc(NC(=O)c3ccccc3)c2n1 [Example 57, N-(2-dimethylamino-4-(2-furyl)thieno[3,2-d]pyrimidine-7-yl)benzamide]
211.9 °C	CS(=O)(=O)Nc1csc2c(-c3ccco3)nc(Cl)nc12 [Example 59, N-(2-chloro-4-(2-furyl)thieno[3,2-d]pyrimidine-7-yl)methanesulphonamide]
108.3 to 108.6 °C	CC(=O)CC(=O)N(C)c1nc(-c2ccco2)c2sccc2n1 [Example 60, N-(4-(2-furyl)thieno[3,2-d]pyrimidine-2-yl)-N-methyl-3-oxobutanamide]
75.4 to 76.3 °C	OC[C@H]1CCCN1c1nc(-c2ccco2)c2scc(Br)c2n1 [Example 72, (2R)-7-bromo-4-(2-furyl)-2-(2-hydroxymethylpyrrolidin-1-yl)thieno[3,2-d]pyrimidine]
155 to 156 °C	COc1ccc(CNc2nc(-c3ccco3)c3sccc3n2)cc1OC [Example 78, N-(3,4-dimethoxybenzyl)-4-(2-furyl)thieno[3,2-d]pyrimidine-2-amine]
193.9 to 195 °C	CC(=O)Nc1nc(-c2ccco2)c2sccc2n1 [Example 101, N-(4-(2-furyl)thieno[3,2-d]pyrimidin-2-yl)acetamide]

melting point	SMILES
243 to 244 °C	Cc1cnc(-c2nc(Cl)nc3ccsc23)s1 [Example 102, 2-chloro-4-(5-methyl-2-thiazolyl)thieno[3,2-d]pyrimidine]
240 to 241 °C	Cc1nc(-c2nc(Cl)nc3ccsc23)sc1C [Example 103, 2-chloro-4-(4,5-dimethyl-2-thiazolyl)thieno[3,2-d]pyrimidine]
170 to 170.5 °C	CCc1nc(-c2ncc(-c3ccccc3)o2)c2sccc2n1 [Example 106, 2-ethyl-4-(5-phenyl-2-oxazolyl)thieno[3,2-d]pyrimidine]
178.7 to 179.5 °C	COc1ccc(CNc2nc(-c3nccs3)c3sccc3n2)cc1OC [Example 108, N-(3,4-dimethoxybenzyl)-4-(2-thiazolyl)thieno[3,2-d]pyrimidine-2-amine]
221 to 222 °C	Cc1ccc(-c2nc(Cl)nc3ccsc23)nc1 [Example 109, 2-chloro-4-(5-methyl-2-pyridyl)thieno[3,2-d]pyrimidine]
128 to 129 °C	C=CCNc1nc(-c2nccs2)c2sccc2n1 [Example 112, N-allyl-4-(2-thiazolyl)thieno[3,2-d]pyrimidine-2-amine]
242.6 to 243.9 °C	CC(=O)Nc1nc(-c2nccs2)c2sccc2n1 [Example 116, N-(4-(2-thiazolyl)thieno[3,2-d]pyrimidin-2-yl)acetamide]
149 °C	c1coc(-c2nc(Cc3cccs3)nc3ccsc23)c1 [Example 117, 4-(2-furyl)-2-(2-thienylmethyl)thieno[3,2-d]pyrimidine]
179 °C	CCc1nc(-c2nc(CC)nc3ccsc23)c2sccc2n1 [Example 119, 2-ethyl-4-(2-ethylthieno[3,2-d]pyrimidin-4-yl)thieno[3,2-d]pyrimidine]
131 °C	CCc1nc(-c2nc3ccccc3s2)c2sccc2n1 [Example 122, 4-(2-benzothiazolyl)-2-ethylthieno[3,2-d]pyrimidine]
221.9 °C	c1csc(-c2nc(-c3nccs3)c3sccc3n2)c1 [Example 153, 4-(2-thiazolyl)-2-(2-thienyl)thieno[3,2-d]pyrimidine]
300 °C (dec.)	NC(=O)c1nc(-c2ccco2)c2sccc2n1 [Example 155, 4-(2-furyl)thieno[3,2-d]pyrimidine-2-carboxamide]
117.7 to 118.2 °C	Clc1nc(-c2ccsc2)c2sccc2n1 [Example 156, 2-chloro-4-(3-thienyl)thieno[3,2-d]pyrimidine]
119 to 119.4 °C	CN(C)c1nc(-c2ccsc2)c2sccc2n1 [Example 157, N,N-dimethyl-4-(3-thienyl)thieno[3,2-d]pyrimidine-2-amine]
146.5 to 147.2 °C	Clc1nc(-c2ccccc2)c2sccc2n1 [Example 158, 2-chloro-4-phenylthieno[3,2-d]pyrimidine]
112.9 to 114.1 °C	CN(C)c1nc(-c2ccccc2)c2sccc2n1 [Example 159, N,N-dimethyl-4-phenylthieno[3,2-d]pyrimidine-2-amine]
129.3 to 129.9 °C	Clc1nc(-c2ccoc2)c2sccc2n1 [Example 160, 2-chloro-4-(3-furyl)thieno[3,2-d]pyrimidine]
204 to 204.9 °C	O=[N+]([O-])c1cc2nc(Cl)nc(-c3ccco3)c2s1 [Example 162, 2-chloro-4-(2-furyl)-6-nitrothieno[3,2-d]pyrimidine]
209 to 210 °C	CCOC(=O)Cn1ccnc1-c1nc(N(C)C)nc2ccsc12 [Example 177, N,N-dimethyl-4-((1-ethoxycarbonylmethyl)-1H-imidazol-2-yl)thieno[3,2-d]pyrimidine-2-amine]
162.2 to 164.9 °C	CN(C)c1nc(-c2nccn2CCO)c2sccc2n1 [Example 178, N,N-dimethyl-4-(1-(2-hydroxyethyl)-1H-imidazol-2-yl)thieno[3,2-d]pyrimidine-2-amine]
69 to 70 °C	CCc1nc(-c2nccn2COC)c2sccc2n1 [Example 179, 2-ethyl-4-(1-methoxymethyl-1H-imidazol-2-yl)thieno[3,2-d]pyrimidine]
141 to 142 °C	Cn1nccc1-c1nc(Cl)nc2ccsc12 [Example 182, 2-chloro-4-(1-methyl-1H-pyrazol-5-yl)thieno[3,2-d]pyrimidine]
126.5 to 127 °C	CN(C)c1nc(-c2ccnn2C)c2sccc2n1 [Example 184, N,N-dimethyl-4-(1-methyl-1H-pyrazol-5-yl)thieno[3,2-d]pyrimidine-2-amine]
175.4 to 175.9 °C	CN(C)c1nc(-c2cnn(C)c2)c2sccc2n1 [Example 186, N,N-dimethyl-4-(1-methyl-1H-pyrazol-4-yl)thieno[3,2-d]pyrimidine-2-amine]
110.2 to 111.4 °C	CCc1nc(-c2nncn2C)c2sccc2n1 [Example 187, 2-ethyl-4-(4-methyl-4H-1,2,4-triazol-3-yl)thieno[3,2-d]pyrimidine]
104.7 to 104.8 °C	CCc1nc(-c2ccco2)c2sc(C)cc2n1 [Example 188, 2-ethyl-4-(2-furyl)-6-methylthieno[3,2-d]pyrimidine]
